According to ChEMBL document CHEMBL4004849, “Tetrazolylmethyl quinolines: Design, docking studies, synthesis, anticancer and antifungal analyses” (2017):
Activity calls are given as the source filed them. The calls are words filed in the database; no cut-off is given here.

What was measured:
Type in all cases: functional
[1] = tested on: SF-295; assay: Growth inhibition of human SF295 cells at 10^-5 M incubated for 48 hrs by sulforhodamine B assay relative to control; settings: for inhibition of growth at 10 µM: SF-295, 48 h, read-out: GI
[2] = tested on: LOX IMVI; assay: Growth inhibition of human LOXIMVI cells at 10^-5 M incubated for 48 hrs by sulforhodamine B assay relative to control; settings: for inhibition of growth at 10 µM: read-out: GI
[3] = tested on: TK-10; assay: Growth inhibition of human TK10 cells at 10^-5 M incubated for 48 hrs by sulforhodamine B assay relative to control; settings: for inhibition of growth at 10 µM: TK-10, 48 h, read-out: GI
[4] = tested on: MDA-MB-231; assay: Growth inhibition of human MDA-MB-231/ATCC cells at 10^-5 M incubated for 48 hrs by sulforhodamine B assay relative to control; settings: for inhibition of growth at 10 µM: MDA-MB-231, 48 h, read-out: GI
[5] = tested on: SNB-75; assay: Growth inhibition of human SNB75 cells at 10^-5 M incubated for 48 hrs by sulforhodamine B assay relative to control; settings: for inhibition of growth at 10 µM: SNB-75, 48 h, read-out: GI
[6] = tested on: OVCAR-4; assay: Growth inhibition of human OVCAR4 cells at 10^-5 M incubated for 48 hrs by sulforhodamine B assay relative to control; settings: for inhibition of growth at 10 µM: OVCAR-4, 48 h, read-out: GI
[7] = tested on: EKVX; assay: Growth inhibition of human EKVX cells at 10^-5 M incubated for 48 hrs by sulforhodamine B assay relative to control; settings: for inhibition of growth at 10 µM: read-out: GI
[8] = tested on: Hs-578T; assay: Growth inhibition of human Hs 578T cells at 10^-5 M incubated for 48 hrs by sulforhodamine B assay relative to control; settings: for inhibition of growth at 10 µM: read-out: GI
[9] = tested on: Aspergillus fumigatus; assay: Antifungal activity against Aspergillus fumigatus at 100 ug/ml by disc diffusion method; settings: read-out: IZ
[10] = tested on: 786-0; assay: Growth inhibition of human 786-0 cells at 10^-5 M incubated for 48 hrs by sulforhodamine B assay relative to control; settings: for inhibition of growth at 10 µM: 786-0, 48 h, read-out: GI
[11] = tested on: SF-539; assay: Growth inhibition of human SF539 cells at 10^-5 M incubated for 48 hrs by sulforhodamine B assay relative to control; settings: for inhibition of growth at 10 µM: SF-539, 48 h, read-out: GI
[12] = tested on: KM12; assay: Growth inhibition of human KM12 cells at 10^-5 M incubated for 48 hrs by sulforhodamine B assay relative to control; settings: for inhibition of growth at 10 µM: KM12, 48 h, read-out: GI
[13] = tested on: ACHN; assay: Growth inhibition of human ACHN cells at 10^-5 M incubated for 48 hrs by sulforhodamine B assay relative to control; settings: for inhibition of growth at 10 µM: read-out: GI

| SMILES | growth inhibition (GI) [1] | growth inhibition (GI) [2] | growth inhibition (GI) [3] | growth inhibition (GI) [4] | growth inhibition (GI) [5] | growth inhibition (GI) [6] | growth inhibition (GI) [7] | growth inhibition (GI) [8] | zone of inhibition at 100 µg/mL [9] [mm] | growth inhibition (GI) [10] | growth inhibition (GI) [11] | growth inhibition (GI) [12] | growth inhibition (GI) [13] | also measured |
| --- | --- | --- | --- | --- | --- | --- | --- | --- | --- | --- | --- | --- | --- | --- |
| Fc1ccc2nc(Cl)c(Cn3nnc(Cc4ccccc4)n3)cc2c1 | Active | Active | Active | Active | Active | Active | Active | Active | 15 | Active | Active | Active | Active |  |
| Cc1ccc2nc(Cl)c(Cn3nnnc3Cc3ccccc3)cc2c1 | Active | Active | Active | Active | Active | Active | Active | Active | 10 | Active | Active | Active | Active |  |
| Cc1ccc2nc(Cl)c(Cn3nnnc3CSc3ccccc3)cc2c1 | Active | Active | Active | Active | Active | Active | Active | Active | 16 | Active | Active | Active | Active |  |
| Clc1nc2ccc(Br)cc2cc1Cn1nnnc1Cc1ccccc1 | Active | Active | Active | Active | Active | Active | Active | Active | 13 | Active | Active | Active | Active |  |
| Fc1ccc2nc(Cl)c(Cn3nnnc3Cc3ccccc3)cc2c1 | Active | Active | Active | Active | Active | Active | Active | Active | 10 | Active | Active | Active | Active |  |
| Fc1ccc2nc(Cl)c(Cn3nnnc3CSc3ccccc3)cc2c1 | Active | Active | Active | Active | Active | Active | Active | Active | 14 | Active | Active | Active | Active |  |
| COc1ccc2nc(Cl)c(Cn3nnnc3Cc3ccccc3)cc2c1 | Active | Active | Active | Active | Active | Active | Active | Active | 20 | Active | Active | Active | Active |  |
| Clc1nc2ccc(Br)cc2cc1Cn1nnc(Cc2ccccc2)n1 | Active | Active | Active | Active | Active | Active | Active | Active | 13 | Active | Active | Active | Active |  |
| Clc1nc2ccccc2cc1Cn1nnnc1CSc1ccccc1 | Active | Active | Active | Active | Active | Active | Active | Active | 16 | Active | Active | Active | Active |  |
| Clc1nc2ccccc2cc1Cn1nnc(Cc2ccccc2)n1 |  |  |  |  |  |  |  |  | 16 |  |  |  |  | inhibition of growth at 10 µM [1]: 52.4%; inhibition of growth at 10 µM [2]: 46.4%; inhibition of growth at 10 µM [3]: 39.1%; inhibition of growth at 10 µM [4]: 47%; inhibition of growth at 10 µM [5]: 44.6%; inhibition of growth at 10 µM [6]: 70.3%; inhibition of growth at 10 µM [7]: 63.9%; inhibition of growth at 10 µM [8]: 23.4%; inhibition of growth at 10 µM [10]: 27.1%; inhibition of growth at 10 µM [11]: 18.8%; inhibition of growth at 10 µM [12]: 33.7%; inhibition of growth at 10 µM [13]: 47.8% |
| Clc1nc2ccccc2cc1Cn1nnc(CSc2ccccc2)n1 | Active | Active | Active | Active | Active | Active | Active | Active | 15 | Active | Active | Active | Active |  |
| Cc1ccc2nc(Cl)c(Cn3nnc(CSc4ccccc4)n3)cc2c1 | Active | Active | Active | Active | Active | Active | Active | Active | 18 | Active | Active | Active | Active |  |
| Clc1nc2ccccc2cc1Cn1nnnc1Cc1ccccc1 | Active | Active | Active | Active | Active | Active | Active | Active | 14 | Active | Active | Active | Active |  |
| Clc1nc2ccc(Br)cc2cc1Cn1nnnc1CSc1ccccc1 | Active | Active | Active | Active | Active | Active | Active | Active | 20 | Active | Active | Active | Active |  |
| COc1ccc2nc(Cl)c(Cn3nnnc3CSc3ccccc3)cc2c1 | Active | Active | Active | Active | Active | Active | Active | Active | 18 | Active | Active | Active | Active |  |
| COc1ccc2nc(Cl)c(Cn3nnc(Cc4ccccc4)n3)cc2c1 |  |  |  |  |  |  |  |  | 20 |  |  |  |  | inhibition of growth at 10 µM [1]: 62.6%; inhibition of growth at 10 µM [2]: 57.1%; inhibition of growth at 10 µM [3]: 65.1%; inhibition of growth at 10 µM [4]: 49.3%; inhibition of growth at 10 µM [5]: 42.9%; inhibition of growth at 10 µM [6]: 80.3%; inhibition of growth at 10 µM [7]: 75.5%; inhibition of growth at 10 µM [8]: 31.1%; inhibition of growth at 10 µM [10]: 52.5%; inhibition of growth at 10 µM [11]: 32.5%; inhibition of growth at 10 µM [12]: 63.5%; inhibition of growth at 10 µM [13]: 58.5% |
